From BindingDB's records for patent US10457686 (Hoffmann-La Roche Inc., 2019)

Biological target: Cannabinoid receptor 1 (Homo sapiens, UniProt P21554)
Sequence (P21554 whole entry): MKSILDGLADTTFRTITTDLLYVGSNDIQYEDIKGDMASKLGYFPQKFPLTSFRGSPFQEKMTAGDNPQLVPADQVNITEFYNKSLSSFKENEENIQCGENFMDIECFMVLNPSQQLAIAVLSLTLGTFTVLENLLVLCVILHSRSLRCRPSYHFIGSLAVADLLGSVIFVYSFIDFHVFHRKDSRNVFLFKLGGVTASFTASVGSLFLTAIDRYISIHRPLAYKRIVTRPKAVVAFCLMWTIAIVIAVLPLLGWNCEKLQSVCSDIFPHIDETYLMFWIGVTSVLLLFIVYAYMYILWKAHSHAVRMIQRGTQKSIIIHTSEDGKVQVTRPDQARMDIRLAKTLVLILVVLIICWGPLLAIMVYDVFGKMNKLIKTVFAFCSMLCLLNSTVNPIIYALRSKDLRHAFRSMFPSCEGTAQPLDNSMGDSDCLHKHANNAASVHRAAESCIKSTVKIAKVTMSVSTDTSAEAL

## CC(C)(C)c1nc(N2CCC(F)(F)C2)c2nn(Cc3ccc(C4(C(F)(F)F)N=N4)cc3Cl)nc2n1 [US10457686, Example 1]
  Ki: > 10 µM
